Reference: patent publication US20250144102A1, “1 H-PYRAZOLO[4,3-D]PYRIMIDINE DERIVATIVES AS STAPHYLOCOCCUS AUREUS INHIBITORS” (DR REDDY'S INSTITUTE OF LIFE SCIENCES, priority 2022, published 2025)
Values after ≈ are worked out from the molar mass of the structure shown. Read-outs that look alike come from different tables or passages of the source.

Key:
Type in all cases: cell-based
[1] = test system: Staphylococcus aureus ATCC29213; assay: MIC broth microdilution, S. aureus ATCC29213; details: Staphylococcus aureus ATCC29213 (sensitive strain), CAMHB, 37° C., 18-20 hours, 90% growth inhibition
Protocol: (§1) Compound 7 was tested to evaluate its inhibitory effect on Staphylococcus aureus. An experiment was conducted to assess the minimum inhibitory concentration (MIC) of the compound of Formula (I).
(§2) 20.0 mg of test compound was weighed and dissolved in 0.5 mL of filtered DMSO (100%) to prepare a stock solution of 40 mg/mL concentration. Initial stock (Stock 1 and Stock 2) and working stock solution (10 concentrations) were prepared as mentioned in the table below. Final testing concentration in the micro-titer plates was starting from 1000 μg/mL in experiment plate.
(§3) The reference standards gentamicin, norfloxacin and levofloxacin were dissolved using sterile ultrapure water to prepare a stock solution of 2.0 mg/mL concentration. Working stock solution of 64 μg/mL was prepared in CAMHB by diluting 0.032 mL of 2.0 mg/mL stock solution in 0.968 mL of growth medium. The testing concentration in the micro-titer plates is 32 μg/mL.
(§4) Tester strains were sub-cultured on Soyabean Casein digest Agar (SCDA) and incubated at 37° C. for 18-20 hours in aerobic condition. After incubation, the isolated colonies were suspended in sterile saline to prepare the bacterial suspension. The bacterial suspension was adjusted to ˜1×10^8 CFU/mL.
(§5) ? titer plates (Flat bottom) were prepared as per the CLSI recommendations. The test compound and reference compounds dilution were performed in the micro titer plates. Two hundred microliters of respective growth medium were added to the wells of a 96-wellflat bottom plate well A1 to E1 for Broth control. One hundred microliters of respective growth medium were added to all the wells B3 to B11, C3 to C11, D3 to D11, E3 to E11 except B2 to E2. One hundred microliters of prepared test compound 7 working stock solution (10 concentrations) were added from A2 to A11. Two hundred microliters of reference Standard were added to B2, C2 and D2. Two hundred microliters of DMSO were to E2 as negative control. One hundred microliter was transferred from B2, C2, D2 and E2 wells B3, C3, D3 and E3 wells respectively and serially diluted up to B11, C11, D11 and E11 wells. One hundred microliter after serial dilution was discarded from Bit, C11, D11 and E11 wells, wells A12 to F12 serve as culture control.
(§6) The adjusted bacterial suspension was further diluted in CAMHB (Section 6.5), 100 μl of diluted culture was added to micro titer plate where the final concentration was 5×10^5 CFU/mL. Plates were incubated at 37° C. for 18-20 hours at aerobic conditions.
(§7) After incubation, visual readings were recorded, and the optical density was measured at 600 nm in spectrophotometer. The concentration of compound at 90% growth was inhibited compared to growth control was considered as the MIC value.

[2] = test system: Klebsiella pneumoniae ATCC 700603; assay: MIC broth microdilution, K. pneumoniae ATCC 700603; details: 37° C., 18-20 hours, 90% growth inhibition
Protocol: [The source words this procedure for another organism and reports this organism under the same test.] as §1, §2, §3, §4, §5, §6, §7

[3] = test system: Staphylococcus aureus (Gentamicin resistant) ATCC43300; assay: MIC broth microdilution, S. aureus ATCC43300; details: Staphylococcus aureus ATCC43300 (resistant to Methicillin, Oxacillin, Gentamicin and Azithromycin), CAMHB, 37° C., 18-20 hours, 90% growth inhibition
Protocol: as §1, §2, §3, §4, §5, §6, §7

[4] = test system: Gram-positive Staphylococcus aureus strains, including MRSA and GR-MRSA; assay: MIC, summary over S. aureus strains; details: various Staphylococcus aureus strains, including MRSA and GR-MRSA (text summary of Table 1)
Protocol: as §1, §2, §3
as §4, with “CFU/mL. […]” for “CFU/mL.”
After incubation, visual readings were recorded, and the optical density was measured at 600 nm in spectrophotometer. […]

[5] = test system: Staphylococcus aureus ATCC25923; assay: MIC broth microdilution, S. aureus ATCC25923; details: Staphylococcus aureus ATCC25923 (sensitive strain), CAMHB, 37° C., 18-20 hours, 90% growth inhibition
Protocol: as §1, §2, §3, §4, §5, §6, §7

[6] = test system: Escherichia coli ATCC9637; assay: MIC broth microdilution, E. coli ATCC9637; details: CAMHB, 37° C., 18-20 hours, 90% growth inhibition
Protocol: [The source words this procedure for another organism and reports this organism under the same test.] as §1, §2, §3, §4, §5, §6, §7

[7] = test system: Staphylococcus aureus ATCC700699; assay: MIC broth microdilution, S. aureus ATCC700699; details: Staphylococcus aureus ATCC700699 (resistant to Methicillin and Oxacillin), CAMHB, 37° C., 18-20 hours, 90% growth inhibition
Protocol: as §1, §2, §3, §4, §5, §6, §7

[8] = test system: Pseudomonas aeruginosa ATCC 9027; assay: MIC broth microdilution, P. aeruginosa ATCC 9027; details: 37° C., 18-20 hours, 90% growth inhibition
Protocol: [The source words this procedure for another organism and reports this organism under the same test.] as §1, §2, §3, §4, §5, §6, §7

[9] = ATCC700603, CAMHB, read-out: MIC

Q: For CCCc1nn(C)c2c(-c3c[nH]c4ccc(Cl)cc34)nc(-c3ccc(Cl)cc3)nc12 [Compound 7, 7-(5-chloro-1H-indol-3-yl)-5-(4-chlorophenyl)-1-methyl-3-propyl-1H-pyrazolo[4,3-d]pyrimidine], which MIC ([1]; read-out: MIC) is on record?
A: 1 µg/mL (≈ 2.29 µM)

Q: And the MIC [2, 9]?
A: > 1000 µg/mL

Q: What about the MIC ([3]; read-out: MIC) of the same compound?
A: 1 µg/mL (≈ 2.29 µM)

Q: And the MIC [4]?
A: 1 µg/mL (≈ 2.29 µM)

Q: And the MIC ([5]; read-out: MIC)?
A: 1 µg/mL (≈ 2.29 µM)

Q: What about the MIC ([6]; read-out: MIC) of the same compound?
A: > 1000 µg/mL

Q: And the MIC ([7]; read-out: MIC)?
A: 1 µg/mL (≈ 2.29 µM)

Q: What about the MIC ([8]; ATCC9027, CAMHB, read-out: MIC) of the same compound?
A: > 1000 µg/mL

Q: How did the MIC ([1]; read-out: MIC) turn out when CCn1cc(C(=O)O)c(=O)c2cc(F)c(N3CCNCC3)cc21 [Norfloxacin, norfloxacin] was run?
A: 1 µg/mL (≈ 3.13 µM)

Q: What about the MIC [2, 9] of the same compound?
A: 4 µg/mL (≈ 12.5 µM)

Q: And the MIC ([3]; read-out: MIC)?
A: 1 µg/mL (≈ 3.13 µM)

Q: And the MIC ([5]; read-out: MIC)?
A: 2 µg/mL (≈ 6.26 µM)

Q: And the MIC ([6]; read-out: MIC)?
A: ≤ 0.06 µg/mL

Q: What about the MIC ([7]; read-out: MIC) of the same compound?
A: > 32 µg/mL

Q: What about the MIC ([8]; ATCC9027, CAMHB, read-out: MIC) of the same compound?
A: 0.5 µg/mL (≈ 1.57 µM)

Q: How did the MIC ([1]; read-out: MIC) turn out when C[C@H]1COc2c(N3CCN(C)CC3)c(F)cc3c(=O)c(C(=O)O)cn1c23 [Levofloxacin, levofloxacin] was run?
A: 0.13 µg/mL (≈ 0.36 µM)

Q: What about the MIC [2, 9] of the same compound?
A: 0.5 µg/mL (≈ 1.38 µM)

Q: And the MIC ([3]; read-out: MIC)?
A: 0.13 µg/mL (≈ 0.36 µM)

Q: And the MIC ([5]; read-out: MIC)?
A: 0.13 µg/mL (≈ 0.36 µM)

Q: And the MIC ([6]; read-out: MIC)?
A: ≤ 0.06 µg/mL

Q: What about the MIC ([7]; read-out: MIC) of the same compound?
A: 16 µg/mL (≈ 44.3 µM)

Q: What about the MIC ([8]; ATCC9027, CAMHB, read-out: MIC) of the same compound?
A: 0.5 µg/mL (≈ 1.38 µM)

Q: How did the MIC [1] turn out when gentamicin was run?
A: 0.50 µg/mL

Q: What about the MIC ([2]; CAMHB) of the same compound?
A: 16.00 µg/mL

Q: And the MIC [3]?
A: >32.00 µg/mL

Q: What about the MIC [5] of the same compound?
A: 0.25 µg/mL

Q: What about the MIC [6] of the same compound?
A: 1.00 µg/mL

Q: What about the MIC [7] of the same compound?
A: >32.00 µg/mL

Q: And the MIC ([8]; CAMHB)?
A: 2.00 µg/mL
